Results published in article PMC8443696, “Structural determinants and regulation of spontaneous activity in GABAA receptors” (Nature Communications, 2021).
“And” between values parts separate entries of the source, which are not always exact repeats. Identical values can stand only once. Like-named read-outs stand apart in the source and are kept apart here.

How the values were obtained:
α4β3δ receptors [1] = molecular target: T1, α4β3δ receptors (UniProt P18506+P63080+Q9D6F4); assay type: cell-based, mouse;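 as to GABA current, Supp. Fig. 2b: GABA applied at 0.3 µM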
T1 construct: expressed in transfected cells; host or cells: HEK 293
Source text: (§1) All components were obtained from Life Technologies.
(§2) Currents were acquired with Clampex ver.
(§3) Cells were voltage clamped at −40 mV.
(§4) All data were normalised to the fitted maximum response.

α4β3^DNTKδ receptors = α4β3^DNTKδ receptors (UniProt P18506+P63080+Q9D6F4, E204T/G196D/K198N/R205K)
Source text: as §1, §2, §3, §4

α4β3^K279Tγ2L receptors = α4β3^K279Tγ2L receptors (Mus musculus, UniProt P22723+P63080+Q9D6F4, K304T)
Source text: as §1, §2, §3, §4

α4β3γ2L receptors [2] = molecular target: T2, α4β3γ2L receptors (Mus musculus, UniProt P22723+P63080+Q9D6F4); test: GABA concentration-response curves, whole-cell patch clamp in HEK cells; assay type: cell-based
T2 construct: expressed in transfected cells; host or cells: HEK 293
Source text: as §1, §2, §3, §4

α4β3δ receptors [3] = molecular target: T1, α4β3δ receptors; assay type: cell-based, mouse; settings: α4β3δ GABA (Fig. 1d); GABA 500 µM, PTX 100 µM; individual cells
Source text: as §1, §2, §3
(§5) For assessment of the efficacy of allosteric modulators on spontaneous activity, compounds were briefly applied (3–5 s) to achieve steady-state currents (IMod). […] The IMod was summed with IPTX (or subtracted for inhibitory modulators) and the Ispont calculated, as described by Eq. (2):2 Ispont(%)=[(IPTX+IMod)/(IPTX+IMax)]×100……………………………………

α1β3γ2L receptors = test system: T3, α1β3γ2L receptors; test: Quantification of spontaneous activity (Ispont) in HEK cells, whole-cell patch clamp; assay type: cell-based, mouse; settings: α1β3γ2L GABA (Fig. 1d); GABA 500 µM, PTX 100 µM; individual cells
T3 construct: expressed in transfected cells; host or cells: HEK 293
Source text: as §1, §2, §3, §5

α4β3 receptors = test system: T4, α4β3 receptors; test: Agonist-evoked whole-cell currents and their modulation by Zn2+ / DS2 in HEK cells;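 as to GABA current, Supp. Fig. 2b: GABA applied at 0.3 µM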; assay type: cell-based, mouse; set-up: GABA current, Supp. Fig. 2b / GABA + DS2 current, Supp. Fig. 2b / GABA current, Supp. Fig. 2a: unit not given here
T4 construct: expressed in transfected cells; host or cells: HEK 293
Source text: as §1, §2, §3

α4β3δ receptors [4] = molecular target: T1, α4β3δ receptors; test: as above; assay type: cell-based, mouse; settings: GABA alone, individual cells
Source text: as §1, §2, §3

α4β3γ2L receptors [5] = molecular target: T2, α4β3γ2L receptors; test: Agonist-evoked whole-cell currents and their modulation by Zn2+ in HEK cells; assay type: cell-based; settings: GABA alone, individual cells
Source text: as §1, §2, §3

SMILES: NCCCC(=O)O [GABA, γ-aminobutyric acid]
- GABA current normalised to the fitted maximum response (α4β3δ receptors [1]; [GABA] 0.1, individual cells): 0.5073 and 0.405 and 0.6131
- nH (α4β3δ receptors [1]; individual cells): 0.63 and 0.57 and 0.45 and 0.59 and 0.53 and 0.44 and 0.46 and 0.51
- Hill coefficient (α4β3δ receptors [1]; mean ± SEM, n = 9): 0.5 ± 0.02
- GABA current normalised to the fitted maximum response (α4β3^DNTKδ receptors; α4β3DNTKδ, [GABA] 0.01, individual cells): 0.0007434 and 0.002452 and 0.03107 and 0.001383 and 0.00433 and 0.003861 and 0.002036 and 0.01162 and 0 and 0.01893
- GABA current normalised to the fitted maximum response (α4β3^DNTKδ receptors; α4β3DNTKδ, [GABA] 0.03, individual cells): 0.007062 and 0.01195 and 0.04826 and 0.01383 and 0.009382 and 0.004413 and 0.007126 and 0.02054 and 0.004552 and 0.04327
- GABA current normalised to the fitted maximum response (α4β3^DNTKδ receptors; α4β3DNTKδ, [GABA] 0.1, individual cells): 0.04328 and 0.0495 and 0.09628 and 0.06221 and 0.03922 and 0.04794 and 0.04133 and 0.1252 and 0.03443 and 0.105
- GABA current normalised to the fitted maximum response (α4β3^DNTKδ receptors; α4β3DNTKδ, [GABA] 0.3, individual cells): 0.1541 and 0.16 and 0.2541 and 0.193 and 0.1198 and 0.1414 and 0.1295 and 0.114 and 0.2315
- GABA current normalised to the fitted maximum response (α4β3^DNTKδ receptors; α4β3DNTKδ, [GABA] 1, individual cells): 0.3807 and 0.3987 and 0.5261 and 0.4351 and 0.4134 and 0.5199 and 0.3786 and 0.5032
- GABA current normalised to the fitted maximum response (α4β3^DNTKδ receptors; α4β3DNTKδ, [GABA] 3, individual cells): 0.6642 and 0.6962 and 0.7428 and 0.6422 and 0.5604 and 0.7146 and 0.5958 and 0.7349 and 0.6146 and 0.6907
- GABA current normalised to the fitted maximum response (α4β3^DNTKδ receptors; α4β3DNTKδ, [GABA] 10, individual cells): 0.8725 and 0.8838 and 0.9794 and 0.868 and 0.8251 and 0.879 and 0.7932 and 0.8504 and 0.9182 and 0.913
- GABA current normalised to the fitted maximum response (α4β3^DNTKδ receptors; α4β3DNTKδ, [GABA] 30, individual cells): 0.9699 and 0.9833 and 0.9744 and 0.9032 and 0.8901 and 0.9131 and 0.9034 and 0.7914 and 0.976 and 0.9404
- GABA current normalised to the fitted maximum response (α4β3^DNTKδ receptors; α4β3DNTKδ, [GABA] 100, individual cells): 0.9851 and 0.9946 and 0.9484 and 0.9857 and 0.9989 and 1.0526 and 1.007 and 0.9834 and 1.041 and 0.9979
- GABA current normalised to the fitted maximum response (α4β3^DNTKδ receptors; α4β3DNTKδ, [GABA] 300, individual cells): 0.994 and 0.9896 and 0.9955 and 1.01 and 0.9818 and 1.0044 and 0.9828 and 1.081 and 0.9165 and 0.972
- nH (α4β3^DNTKδ receptors; α4β3DNTKδ, individual cells): 0.91 and 0.96 and 1.1 and 0.94 and 0.75 and 1.12 and 1.06 and 1
- Hill coefficient (α4β3^DNTKδ receptors; α4β3^DNTKδ, mean ± SEM, n = 10): 1.0 ± 0.04
- GABA current normalised to the fitted maximum response (α4β3^K279Tγ2L receptors; α4β3K279Tγ2L, [GABA] 0.001, individual cells): 0.2519 and 0 (3×) and 0.1524 and 0.248
- GABA current normalised to the fitted maximum response (α4β3^K279Tγ2L receptors; α4β3K279Tγ2L, [GABA] 0.003, individual cells): 0.1404 and 0.2434 and 0.2001 and 0.06943 and 0 (2×)
- GABA current normalised to the fitted maximum response (α4β3^K279Tγ2L receptors; α4β3K279Tγ2L, [GABA] 0.01, individual cells): 0.2519 and 0.1217 and 0.166 and 0.124 and 0.0823 and 0.03949
- GABA current normalised to the fitted maximum response (α4β3^K279Tγ2L receptors; α4β3K279Tγ2L, [GABA] 0.03, individual cells): 0.2267 and 0.2011 and 0.2911 and 0.2232 and 0.2097 and 0.1075
- GABA current normalised to the fitted maximum response (α4β3^K279Tγ2L receptors; α4β3K279Tγ2L, [GABA] 0.1, individual cells): 0.3277 and 0.4723 and 0.5922 and 0.2125 and 0.4931 and 0.3266
- GABA current normalised to the fitted maximum response (α4β3^K279Tγ2L receptors; α4β3K279Tγ2L, [GABA] 0.3, individual cells): 0.407 and 0.5504 and 0.3093 and 1.165 and 0.3595
- GABA current normalised to the fitted maximum response (α4β3^K279Tγ2L receptors; α4β3K279Tγ2L, [GABA] 1, individual cells): 0.6167 and 0.8427 and 0.9144 and 0.4437 and 0.6991 and 0.6708
- GABA current normalised to the fitted maximum response (α4β3^K279Tγ2L receptors; α4β3K279Tγ2L, [GABA] 3, individual cells): 0.7288
- nH (α4β3^K279Tγ2L receptors; α4β3K279Tγ2L, individual cells): 0.3987 and 0.6455 and 0.6824 and 0.44 and 1.925 and 0.7169
- Hill coefficient (α4β3^K279Tγ2L receptors; α4β3^K279Tγ2L, mean ± SEM, n = 6): 0.8 ± 0.2
- GABA current normalised to the fitted maximum response (α4β3γ2L receptors [2]; [GABA] 0.01, individual cells): 0.001664 and 0.002276 and 0.001669 and 0.01171 and 0.01147
- GABA current normalised to the fitted maximum response (α4β3γ2L receptors [2]; [GABA] 0.03, individual cells): 0.005144 and 0.004138 and 0.00402 and 0.01346 and 0.01822
- GABA current normalised to the fitted maximum response (α4β3γ2L receptors [2]; [GABA] 0.1, individual cells): 0.01452 and 0.01076 and 0.01069 and 0.03174 and 0.04395
- GABA current normalised to the fitted maximum response (α4β3γ2L receptors [2]; [GABA] 0.3, individual cells): 0.02596 and 0.02427 and 0.06574 and 0.085
- GABA current normalised to the fitted maximum response (α4β3γ2L receptors [2]; [GABA] 1, individual cells): 0.09711 and 0.06608 and 0.07868 and 0.1536 and 0.188
- GABA current normalised to the fitted maximum response (α4β3γ2L receptors [2]; [GABA] 3, individual cells): 0.2349 and 0.1582 and 0.203 and 0.3143 and 0.3127
- GABA current normalised to the fitted maximum response (α4β3γ2L receptors [2]; [GABA] 10, individual cells): 0.4431 and 0.3362 and 0.4922 and 0.6263 and 0.5927
- GABA current normalised to the fitted maximum response (α4β3γ2L receptors [2]; [GABA] 30, individual cells): 0.548 and 0.6886 and 0.7844 and 0.7581
- GABA current normalised to the fitted maximum response (α4β3γ2L receptors [2]; [GABA] 100, individual cells): 0.7417 and 0.7257 and 0.7724 and 0.8852 and 0.8968
- GABA current normalised to the fitted maximum response (α4β3γ2L receptors [2]; [GABA] 300, individual cells): 0.8265 and 0.8069 and 0.8364 and 0.9453 and 0.9104
- GABA current normalised to the fitted maximum response (α4β3γ2L receptors [2]; [GABA] 1000, individual cells): 0.9797 and 0.9449 and 0.994 and 1.0249 and 1.018
- GABA current normalised to the fitted maximum response (α4β3γ2L receptors [2]; [GABA] 3000, individual cells): 0.9857 and 0.9907 and 1.044 and 0.9972 and 0.9754
- nH (α4β3γ2L receptors [2]; individual cells): 0.6867 and 0.7293 and 0.7792 and 0.8713 and 0.7855
- Hill coefficient (α4β3γ2L receptors [2]; mean ± SEM, n = 5): 0.8 ± 0.03
- Ispont, IMax from GABA (α4β3δ receptors [3]): 6.076% and 14.3782% and 18.0154% and 11.8804% and 19.3061% and 35.4037% and 16.1707%
- Ispont, IMax from GABA (α1β3γ2L receptors): 0.9134% and 0.3206% and 5.267% and 3.501% and 0.7067% and 1.417%
- Whole-cell current activated by GABA (α4β3 receptors; 500 µM GABA, n = 7): 237 ± 95 pA
- GABA current, Supp. Fig. 2a (α4β3 receptors; GABA alone, individual cells): 0.31 and 0.16 and 0.22 and 0.23 and 0.064
- GABA current, Supp. Fig. 2b (α4β3 receptors; GABA alone, individual cells): 0.04 and 0.13 and 0.11 and 0.10 and 0.27
- GABA current, Supp. Fig. 2a (α4β3δ receptors [4]): 0.41 and 0.73 and 1.32 and 2.78
- GABA current, Supp. Fig. 2b (α4β3δ receptors [4]): 0.53 and 0.27 and 0.065 and 0.26 and 0.65
- GABA current, Supp. Fig. 2a (α4β3γ2L receptors [5]): 1.69 and 2.20 and 3.55 and 12.70
